Measured values: patent publication US20130129713A1, “METHOD OF ANTIGEN LOADING FOR IMMUNOTHERAPY” (IEO - ISTITUTO EUROPEO DI ONCOLOGIA S.R.L., priority 2010, published 2013)

How the values were obtained:
[1] = tested on: GJs dependent intercellular communication, Mel-04 to human MoDC; assay: FACS dye transfer assay, human cells: Mel-04 to MoDC; format: cell-based; conditions: co-culture in presence of heptanol (3.5 mM)
Text: FIG. 18. Salmonella infection upregulates GJs dependent intercellular communication in a melanoma-MoDC coculture model system. Human monocyte-derived DCs (MoDCs) were labeled with DDAO and then extensively washed.

[2] = tested on: SK-Mel24 and other target cell lines; assay: CTL generation and cytotoxicity (DELFIA cytotoxicity kit); format: cell-based, human; conditions: Mo-DC/SL-infected SK-Mel24 coculture in presence of Heptanol (3,5 mM)
Description: FIG. 24. SL-infected SK-Mel-24 loaded MoDC generate CTLs able to recognize epitopes shared among melanoma cells. CTL generated as described in materials and methods were tested for their antigen-specific cytotoxicity using DELFIA cytotoxicity kit. Target cells were: SK-Mel24, melanoma cell line, HLA negative cell line, HT29 (colon carcinoma).
Mo-DCs obtained from the same donor were loaded with SL-infected SK-Mel24 (SL-SK), and cultured, with purified CD8^+ T cells. Proliferating cells were expanded for 7-10 days in complete medium supplemented with 20 U/ml of rhIL-2. Cytotoxic properties of generated CTLs were tested against selected targets.
Purified CD8 T cells by magnetic cell sorting were cultured with MoDCs previously cocultured with infected or non-infected Sk-Mel24 in the presence or absence of 3,5 mM heptanol. After 24-48h cultures were supplemented with 20 U/ml of rhIL-2 and after 7-10 days CTLs were either subjected to a second round of stimulation or assayed for their cytotoxic activity. Melanoma specific cytotoxicity was measured by using DELFIA cytotoxicity Kit (Perkin Elmer) and lysosomal-associated membrane protein-1 (CD107a) mobilization was performed by using BD FastImmune CD107a reagent (BD Bioscience), according to manufacturer's instructions.

[3] = tested on: gap junctions between B16 cells and DCs; assay: FACS dye transfer assay, murine cells (calcein-AM from B16 to DDAO-labeled DCs); conditions: co-culture in presence of heptanol (3.5 mM)
Description: B16 cells were infected or not with Salmonella, pulsed with the GJ-diffusible dye Calcein-AM and incubated with DDAO-labeled DCs, in the presence or absence of heptanol. One h later the % of cells double positive for DDAO and Calcein-AM, representing the DCs that received the dye from tumor cells, was evaluated by FACS (Black bars).
FACS assay murine cells. DCs were labeled with 10 μM of the dye 7-hydroxy-9H(I,3-dichloro-9,9-dimethylacridin-2-one) (DDAO, Molecular Probes) for 15 minutes at R.T. in the dark and then extensively washed with PBS. B16 cells were infected or not with Salmonella and after 24 hours were labeled with 0.5 μM calcein-acetoxymethylester (calcein-AM; Molecular Probes) in serum-free medium for 30 minutes at 37° C. and then co-cultured with DCs at a ratio of 2:1. Calcein transfer between tumor cells and DCs was evaluated by cytofluorimetry. The co-culture of B16/DCs was carried out in the presence or absence of (3.5 mM) Heptanol (Sigma).

[4] = tested on: GJs dependent intercellular communication between SK-Mel-24 cells; assay: Dye transfer between SK-Mel-24 melanoma cells; format: cell-based, human; conditions: in the presence of heptanol
Description: FIG. 20. Salmonella infection up-regulates GJs dependent intercellular communication in SK-Mel-24 melanoma cell line. In this experiment the dye transfer was performed from melanoma to melanoma cells (SK-Mel-24). The increase in dye transfer from Salmonella infected to non-infected SK-Mel-24 cells is clear as compared to that from non-infected to non-infected cells. The right panel represents the same experiment performed in the presence of Heptanol, an inhibitor of GJ dependent intercellular communication. Data are expressed as percentage of SK-Mel-24 calcein positive cells.

B16-OVA cells / DCs = assay: In vitro cross-presentation assay (K^bOVA on CD11c+ DCs); format: cell-based, murine
Description: B16 and B16-OVA cells alone or together with DCs were treated or not with Salmonella and 24 hours later were stained with 5 μM of Carboxyfluorescein Succinimidyl ester (CF SE) for 20 minutes at 37° C. in the dark and then washed with cold PBS. Where stated, B16 and B16-OVA cells were treated with 10 μM Lactacystin (Sigma) overnight. […] After 24 hours cross-presentation of OVA peptide by DCs was analyzed by cytofluorimetry on CD11c^+ cells using an antibody that recognizes the OVA SIINFEKL peptide in association with MHC I (anti K^bOVA, 25-D1.16).

[5] = tested on: GJs-dependent intercellular communication, SK-Mel-24 to Mo-DC; format: cell-based, human
[6] = tested on: Connexin (Cx) 43 expression in B16 cells; assay: Cx43 expression in B16 cells after infection or PAMP/IFN-g treatment (immunofluorescence, Western blot); format: cell-based, murine
Description: Single bacterial colonies were grown overnight and restarted the next day to reach an A600 nm=0.6 corresponding to 0.6×10^9 CFU/mL. Murine and human melanoma cells were incubated with bacteria for 2 h, at a ratio of 1:50 (cell/bacteria), in the appropriate medium without antibiotics. Cells were washed with PBS and incubated in medium supplemented with 50 μg/mL gentamicin for 12 or 24 h in order to kill extracellular bacteria, with or without IFN-g(100 U/ml).
B16 cells and DC1 DCs were plated in 6-well plates (2×10^5 cells/well) and grown for 18 h. Cells were incubated with PAMPs in complete medium with or without IFN-g(100 U/ml) for 24 hours. The PAMPs used were LPS (1 μg/ml, Sigma), flagellin (0.1 μg/ml, Alexis) and LTA (10 μg/ml, Sigma).
24 hour after infection or treatment with PAMPs, melanoma cells were scraped in ELB buffer (250 mM NaCl, 0.5% Nonidet P-40, 50 mM HEPES [pH 7.0], 5 mM EDTA) containing 1 mM dithiothreitol, 0.5 mM phenylmethylsulfonyl fluoride, and protease inhibitors. Cell lysates were run on SDS page and transferred on Immobilon PVDF membranes. Membranes were probed with a polyclonal rabbit-anti-Cx43 antibody (Sigma) or with a monoclonal mouse-anti-Cx43 antibody (Zymed) or with mouse-anti-vinculin antibody (Sigma) overnight at 4° C. and incubated with anti-mouse horseradish peroxidase-conjugated IgG (Calbiochem) or with anti-rabbit horseradish peroxidase-conjugated IgG (BioRad) antibodies for 1 h. Visualization was carried out with ECL (GE Healthcare). Bands were quantified by densitometry using NIH Image-based software Scion Image (Scion Corporation).
B16 cells were plated onto coverslips (5×10^4 cells/coverslip) and grown for 18 h. Cells were infected with Salmonella. After 24 hours the cells were fixed in 4% (w/v) paraformaldehyde in PBS for 15 min. Blocking and permeabilization were carried out incubating the cells in PBS, 3% (w/v) bovine serum albumin (BSA) and 0.1% (w/v) Triton X-100 for 20 min. The cells were then stained with polyclonal rabbit-anti-Cx43 primary antibody (Sigma, 1:2000) and with an anti-rabbit-Cy3-conjugated secondary antibody (Jackson ImmunoResearch laboratories, 1:400). Cell nuclei were stained with 4′,6-diamidino-2-phenylindole. Confocal microscopy was carried out using a Leica TCS-SP2 (Leica Microsystem).

[7] = B16 cells incubated with purified bacterial components, Western blot 24 h

Molecule: CCCCCCCO [heptanol]
- calcein dye transfer from Mel-04 to MoDC [1]: capable of inhibiting the transfer
- cytotoxicity of generated CTLs against the specific target [2]: unable to lyse the specific target
- transfer of calcein from B16 cells to DCs [3]: completely abolished the transfer of calcein
- dye transfer from infected to non infected SK-Mel-24 cells [4]: inhibited
- presentation of OVA peptide (K^bOVA) by DCs (B16-OVA cells / DCs; infected B16-OVA + mature DCs 24 h, Heptanol (3.5 mM)): completely abolished the presentation of the peptide
- calcein transfer from SK-Mel-24 to Mo-DC [5]: most of the calcein transfer was inhibited

Molecule: CC(=O)N[C@@H](CSC(=O)[C@]1([C@@H](O)C(C)C)NC(=O)[C@H](C)[C@@H]1O)C(=O)O [lactacystin]
- DC surface exposure of the K^b-OVA complex (B16-OVA cells / DCs; B16-OVA pretreated with 10 μM Lactacystin overnight): prevented the DC surface exposure of the K^b-OVA complex

Molecule: flagellin
- Cx43 expression [6, 7]: same upregulation of Cx43

Molecule: lipoteichoic acid [LTA]
- Cx43 expression [6, 7]: same upregulation of Cx43

Molecule: lypopolysaccharide [LPS]
- Cx43 expression [6, 7]: same upregulation of Cx43

B1: IFN-g: inflammatory cytokine gamma-IFN (protein, UniProt P01579 24-161, looked up)
Interferon gamma: QDPYVKEAENLKKYFNAGHSDVADNGTLFLGILKNWKEESDRKIMQSQIVSFYFKLFKNFKDDQSIQKSVETIKEDMNVKFFNSNKKKRDDFEKLTNYSVTDLNVQRKAIHELIQVMAELSPAAKTGKRKRSQMLFRG
- Cx43 expression ([6]; B16 cells, IFN-g alone (100 U/ml)): upregulated Cx43
- Cx43 expression, combination effect ([6]; B16 cells, IFN-g together with Salmonella or bacterial components): acted in synergy with the bacterial components
